Structures can show the parent of a compound that is named as a salt. Where two headings read alike, the source gives them in different places.
Tests used:
Smn protein = Smn protein assay in cultured cells (SMN HTRF); assay type: cell-based, human; settings: for EC1.5x (concentration giving 1.5-fold Smn protein increase): SMA Type 1 patient fibroblast cells (GM03813), 7-point concentration curve, SMN HTRF, concentration producing 1.5 times Smn protein vs DMSO vehicle control, read-out: EC1.5x for Smn protein expression
In short: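 Lysates in RIPA with protease inhibitors are incubated overnight at room temperature with HTRF anti-SMN antibodies. EC1.5x is derived from fold increase in ΔF over vehicle.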

[1] = test system: SMN2 minigene (full length SMN2 minigene mRNA containing SMN2 exon 7); experiment: SMN2 minigene mRNA splicing RT-qPCR assay in cultured cells; assay type: cell-based, human; settings: for EC (1.5-fold): Homo sapiens, HEK293-H, read-out: EC1.5x for production of full length SMN2 mRNA
In short: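 Read-out: full-length (exon 7-included) SMN2 minigene mRNA by multiplex RT-qPCR with GAPDH, efficiency-corrected (1+E)^−Ct, GAPDH-normalized and divided by vehicle. Stably transfected HEK293H cells, 24 h compound exposure, duplicates per concentration. Value is EC1.5x, reported as star ranges.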

[2] = SMA patient fibroblast cells, 48 hours, 7-point concentration data, fold increase relative to vehicle control (SMN HTRF)
[3] = HEK293H cells stably transfected with SMN2-A minigene, 24 hours, 7-point concentration curve, 1.5-fold relative to vehicle-treated cells

| Compound | EC1.5x (concentration giving 1.5-fold Smn protein increase) (Smn protein; 48 hours) | maximum fold (Fold) increase of Smn protein (Smn protein; [2]) | EC (1.5-fold) [1, 3] | EC1.5x for production of full length SMN2 mRNA [1, 3] | maximum fold (Fold) increase of Smn protein (Smn protein) | EC (1.5-fold) ([1]; 24 h) |
| --- | --- | --- | --- | --- | --- | --- |
| CC[C@H]1CN(c2ccc3cc(-c4cn5cc(C)nc(C)c5n4)c(=O)oc3c2)CCN1 [Compound 772, 3-(6,8-dimethylimidazo[1,2-a]pyrazin-2-yl)-7-[(3S)-3-ethylpiperazin-1-yl]-2H-chromen-2-one] | < 300 nM | ***** (fold increase >1.65) | < 0.1 µM | – | – | – |
| Cc1nc2ccc(-c3cc4ccc(N5CCN[C@@H](C)C5)cc4oc3=O)cc2s1 [Compound 770, 3-(2-methyl-1,3-benzothiazol-6-yl)-7-[(3S)-3-methylpiperazin-1-yl]-2H-chromen-2-one] | < 300 nM | **** (fold increase between >1.5 and ≤1.65) | < 0.1 µM | – | – | – |
| Cc1cn2cc(-c3cc4ccc(N5CCN6CCC[C@H]6C5)cc4oc3=O)cc(F)c2n1 [Compound 983, 3-(8-fluoro-2-methylimidazo[1,2-a]pyridin-6-yl)-7-[(8aS)-hexahydropyrrolo[1,2-a]pyrazin-2(1H)-yl]-2H-chromen-2-one] | < 300 nM | ***** (fold increase >1.65) | < 0.1 µM | – | – | – |
| Cc1cn2cc(-c3cc4ccc(N5CCC6(CC5)CNC6)cc4oc3=O)nc2c(C)n1 [Compound 976, 7-(2,7-diazaspiro[3.5]non-7-yl)-3-(6,8-dimethylimidazo[1,2-a]pyrazin-2-yl)-2H-chromen-2-one] | 1000 to 3000 nM | *** (fold increase between >1.35 and ≤1.5) | < 0.1 µM | – | – | – |
| C[C@H]1CN(c2ccc3cc(-c4cc5ccccn5c4)c(=O)oc3c2)CCN1 [Compound 565, 3-(indolizin-2-yl)-7-[(3S)-3-methylpiperazin-1-yl]-2H-chromen-2-one] | – | * (maximum fold increase of ≤1.2) | 1 to 3 µM | – | – | – |
| Cc1cn2cc(-c3cc4ccc(N5CC6(CC(N)C6)C5)cc4oc3=O)nc2c(C)n1 [Compound 977, 7-(6-amino-2-azaspiro[3.3]hept-2-yl)-3-(6,8-dimethylimidazo[1,2-a]pyrazin-2-yl)-2H-chromen-2-one] | – | * (maximum fold increase of ≤1.2) | 1 to 3 µM | – | – | – |
| Cc1cn2cc(-c3cc4ccc(N5CCNC(C)(C)C5)cc4oc3=O)nc2c(C)n1 [Compound 736, 3-(6,8-dimethylimidazo[1,2-a]pyrazin-2-yl)-7-(3,3-dimethylpiperazin-1-yl)-2H-chromen-2-one] | < 300 nM | ***** (fold increase >1.65) | < 0.1 µM | – | – | – |
| 7-(1,4-diazepan-1-yl)-3-(6-methylimidazo[1,2-a]pyrazin-2-yl)-2H-chromen-2-one [Compound 477] | < 300 nM | ***** (fold increase >1.65) | – | ***** (EC1.5x≤0.1 μM) | – | – |
| Cc1ccn2cc(-c3cc4ccc(O[C@@H]5CCNC5)cc4oc3=O)nc2c1 [Compound 323, 3-(7-methylimidazo[1,2-a]pyridin-2-yl)-7-[(3R)-pyirolidin-3-yloxy]-2H-chromen-2-one hydrochloride (1:2)] | – | ** (fold increase between >1.2 and ≤1.35) | 0.3 to 1 µM | – | – | – |
| CSc1nccn2cc(-c3cc4ccc(N5CCNCC5)cc4oc3=O)nc12 [Cpd 398, 3-[8-(methylsulfanyl)imidazo[1,2-a]pyrazin-2-yl]-7-(piperazin-1-yl)-2H-chromen-2-one] | – | * (maximum fold increase of ≤1.2) | 1 to 3 µM | – | – | – |
| O=C(O)C(F)(F)F.O=c1oc2cc(N3CCNCC3)ccc2cc1-c1nc2cccc(C(F)(F)F)c2o1 [Compound 2, 7-(piperazin-1-yl)-3[7-(trifluoromethyl)-1,3-benzoxazol-2-yl]-2H-chromen-2-one trifluoroacetate] | – | * (maximum fold increase of ≤1.2) | 0.3 to 1 µM | – | – | – |
| Cl.O=c1oc2cc(N3CCNCC3)ccc2cc1-c1nc2c(F)cccc2o1 [Compound 40, 3-(4-fluoro-1,3-benzoxazol-2-yl)-7-(piperazin-1-yl)-2H-chromen-2-one hydrochloride] | – | ** (fold increase between >1.2 and ≤1.35) | 1 to 3 µM | – | – | – |
| Cc1nccc(-c2cc3ccc(N4CCN(C)CC4)cc3oc2=O)n1 [Compound 297, 7-(4-methylpiperazin-1-yl)-3-(2-methylpyrimidin-4-yl)-2H-chromen-2-one] | – | * (maximum fold increase of ≤1.2) | 3 to 30 µM | – | – | – |
| O=c1oc2cc(OC3CCNC3)ccc2cc1-c1cn2cccnc2n1 (stereo in doubt) [Cpd 321, 3-(imidazo[1,2-a]pyrimidin-2-yl)-7-[(3R)-pyrrolidin-3-yloxy]-2H-chromen-2-one hydrochloride (1:2)] | – | – | – | – | ** (key: *: maximum fold increase of ≤1.2; **: fold increase between >1.2 and ≤1.35; ***: fold increase between >1.35 and ≤1.5; ****: fold increase between >1.5 and ≤1.65; *****: fold increase >1.65) | 1 to 3 µM |
| O=c1oc2cc(N3CCNCC3)ccc2cc1-c1nc2ncccc2o1 [Compound 110, 3-([1,3]oxazolo[4,5-b]pyridin-2-yl)-7-(piperazin-1-yl)-2H-chromen-2-one hydrochloride] | – | ** (fold increase between >1.2 and ≤1.35) | 3 to 30 µM | – | – | – |
| C[C@@H]1CN(c2ccc3cc(-c4cc5ncccn5c4)c(=O)oc3c2)C[C@H](C)N1 [Compound 580, 7-[(3R,5S)-3,5-dimethylpiperazin-1-yl]-3-(pyrrolo[1,2-a]pyrimidin-7-yl)-2H-chromen-2-one] | – | * (maximum fold increase of ≤1.2) | 1 to 3 µM | – | – | – |
| Cc1cn2cc(-c3cc4ccc(C5CCN(C)CC5)cc4oc3=O)nc2c(C)n1 [Compound 748, 3-(6,8-dimethylimidazo[1,2-a]pyrazin-2-yl)-7-(1-methylpiperidin-4-yl)-2H-chromen-2-one] | < 300 nM | ***** (fold increase >1.65) | < 0.1 µM | – | – | – |
| Cc1cn2cc(-c3cc4ccc(N5CCN6C(=O)CCC6C5)cc4oc3=O)nc2c(C)n1 (stereo not shown) [Compound 973, 2-[3-(6,8-dimethylimidazo[1,2-a]pyrazin-2-yl)-2-oxo-2H-chromen-7-yl]hexahydropyrrolo[1,2-a]pyrazin-6(2H)-one] | – | * (maximum fold increase of ≤1.2) | 3 to 30 µM | – | – | – |
| CCCN1CCC(c2ccc3cc(-c4cn5cc(C)ncc5n4)c(=O)oc3c2)CC1 [Compound 887, 3-(6-methylimidazo[1,2-a]pyrazin-2-yl)-7-(1-propylpiperidin-4-yl)-2H-chromen-2-one] | < 300 nM | ***** (fold increase >1.65) | < 0.1 µM | – | – | – |
| Cc1nc2ccc(-c3cc4ccc(N5CCN(C)[C@@H](C)C5)cc4oc3=O)cc2s1 [Compound 776, 7-[(3S)-3,4-dimethylpiperazin-1-yl]-3-(2-methyl-1,3-benzothiazol-6-yl)-2H-chromen-2-one acetate (2:1)] | – | ** (fold increase between >1.2 and ≤1.35) | 1 to 3 µM | – | – | – |
| O=c1oc2cc(N3CCNCC3)ccc2cc1-c1cn2ccccc2n1 [Compound 34, 3-(imidazo[1,2-a]pyridin-2-yl)-7-(piperazin-1-yl)-2H-chromen-2-one] | – | ** (fold increase between >1.2 and ≤1.35) | 0.3 to 1 µM | – | – | – |
| Cc1nccn2cc(-c3cc4ccc(N5CCN[C@@H](C)C5)cc4oc3=O)nc12 [Compound 573, 3-(8-methylimidazo[1,2-a]pyrazin-2-yl)-7-[(3S)-3-methylpiperazin-1-yl]-2H-chromen-2-one] | < 300 nM | **** (fold increase between >1.5 and ≤1.65) | 0.3 to 1 µM | – | – | – |
| CN(C)CCN(C)c1ccc2cc(-c3nc4ccccc4o3)c(=O)oc2c1 [Compound 49, 3-(1,3-benzoxazol-2-yl)-7-{[2-(dimethylamino)ethyl](methyl)amino}-2H-chromen-2-one] | – | * (maximum fold increase of ≤1.2) | 3 to 30 µM | – | – | – |
| Cc1cn2cc(-c3cc4ccc(N5CCN[C@@H](C)C5)cc4oc3=O)ccc2n1 [Compound 664, 3-(2-methylimidazo[1,2-a]pyridin-6-yl)-7-[(3S)-3-methylpiperazin-1-yl]-2H-chromen-2-one] | < 300 nM | ***** (fold increase >1.65) | < 0.1 µM | – | – | – |
| Cc1nc(Cl)cn2cc(-c3cc4ccc(N5C[C@@H]6C[C@H]5CN6C)cc4oc3=O)nc12 [Compound 787, 3-(6-chloro-8-methylimidazo[1,2-a]pyrazin-2-yl)-7-[(1S,4S)-5-methyl-2,5-diazabicyclo[2.2.1]hept-2-yl]-2H-chromen-2-one] | 300 to 1000 nM | *** (fold increase between >1.35 and ≤1.5) | < 0.1 µM | – | – | – |

From patent USRE47689E1, “Compounds for treating spinal muscular atrophy” (PTC Therapeutics, Inc., priority 2011, dated 2019)
